Reference: the NIST ThermoML archive (doi:10.1016/j.jct.2018.04.018)
Where “and” joins values, the source holds several entries; their conditions need not be identical. Equal entries are not always repeated. ± gives the expanded uncertainty stated by the source.

Settings: 101.33 kPa, Liquid

## CCCCCCCC[n+]1ccn(C)c1.F[P-](F)(F)(F)(F)F [1-octyl-3-methylimidazolium hexafluorophosphate]
369.26 K, Cone and plate viscometry
  viscosity: 26.6 ± 1.1 mPa·s
369.99 K, Cone and plate viscometry
  viscosity: 26 ± 1.1 mPa·s and 26.4 ± 1.1 mPa·s
370.73 K, Cone and plate viscometry
  viscosity: 25.4 ± 1 mPa·s and 25.8 ± 1.1 mPa·s
371.47 K, Cone and plate viscometry
  viscosity: 25.2 ± 1 mPa·s
371.49 K, Cone and plate viscometry
  viscosity: 24.8 ± 1 mPa·s
372.22 K, Cone and plate viscometry
  viscosity: 24.8 ± 1 mPa·s
372.23 K, Cone and plate viscometry
  viscosity: 24.3 ± 1 mPa·s
372.96 K, Cone and plate viscometry
  viscosity: 24.3 ± 1 mPa·s
372.97 K, Cone and plate viscometry
  viscosity: 24.4 ± 1 mPa·s
373.15 K, Concentric cylinders viscometry
  viscosity: 24 ± 0.5 mPa·s
373.15 K, Vibrating tube method
  mass density: 1181.63 ± 2.9 kg/m3
373.71 K, Cone and plate viscometry
  viscosity: 23.3 ± 1 mPa·s and 23.7 ± 1 mPa·s
374.44 K, Cone and plate viscometry
  viscosity: 23.1 ± 0.9 mPa·s
374.45 K, Cone and plate viscometry
  viscosity: 22.9 ± 0.9 mPa·s
375.19 K, Cone and plate viscometry
  viscosity: 22.4 ± 0.9 mPa·s and 22.6 ± 0.9 mPa·s
375.94 K, Cone and plate viscometry
  viscosity: 22.1 ± 0.9 mPa·s and 22.3 ± 0.9 mPa·s
376.68 K, Cone and plate viscometry
  viscosity: 21.9 ± 0.9 mPa·s
376.69 K, Cone and plate viscometry
  viscosity: 22 ± 0.9 mPa·s
377.41 K, Cone and plate viscometry
  viscosity: 21.8 ± 0.9 mPa·s
377.42 K, Cone and plate viscometry
  viscosity: 21.6 ± 0.9 mPa·s
378.16 K, Cone and plate viscometry
  viscosity: 21.1 ± 0.9 mPa·s
378.9 K, Cone and plate viscometry
  viscosity: 20.7 ± 0.8 mPa·s
378.91 K, Cone and plate viscometry
  viscosity: 20.6 ± 0.8 mPa·s
379.64 K, Cone and plate viscometry
  viscosity: 20.3 ± 0.8 mPa·s
379.65 K, Cone and plate viscometry
  viscosity: 20.4 ± 0.8 mPa·s
380.39 K, Cone and plate viscometry
  viscosity: 19.7 ± 0.8 mPa·s and 19.9 ± 0.8 mPa·s
381.13 K, Cone and plate viscometry
  viscosity: 19.6 ± 0.8 mPa·s
381.14 K, Cone and plate viscometry
  viscosity: 19.4 ± 0.8 mPa·s
381.87 K, Cone and plate viscometry
  viscosity: 19.2 ± 0.8 mPa·s
381.88 K, Cone and plate viscometry
  viscosity: 19 ± 0.8 mPa·s
382.62 K, Cone and plate viscometry
  viscosity: 18.5 ± 0.8 mPa·s and 18.7 ± 0.8 mPa·s
383.35 K, Cone and plate viscometry
  viscosity: 18.2 ± 0.7 mPa·s
383.36 K, Cone and plate viscometry
  viscosity: 18.4 ± 0.7 mPa·s
384.1 K, Cone and plate viscometry
  viscosity: 18.2 ± 0.7 mPa·s
384.11 K, Cone and plate viscometry
  viscosity: 17.9 ± 0.7 mPa·s
384.85 K, Cone and plate viscometry
  viscosity: 17.7 ± 0.7 mPa·s and 17.9 ± 0.7 mPa·s
385.6 K, Cone and plate viscometry
  viscosity: 17.4 ± 0.7 mPa·s and 17.6 ± 0.7 mPa·s
386.33 K, Cone and plate viscometry
  viscosity: 16.8 ± 0.7 mPa·s
386.34 K, Cone and plate viscometry
  viscosity: 17 ± 0.7 mPa·s
387.07 K, Cone and plate viscometry
  viscosity: 16.6 ± 0.7 mPa·s
387.08 K, Cone and plate viscometry
  viscosity: 16.8 ± 0.7 mPa·s
387.82 K, Cone and plate viscometry
  viscosity: 16.5 ± 0.7 mPa·s and 16.7 ± 0.7 mPa·s
388.56 K, Cone and plate viscometry
  viscosity: 16.6 ± 0.7 mPa·s
388.57 K, Cone and plate viscometry
  viscosity: 16.5 ± 0.7 mPa·s
389.3 K, Cone and plate viscometry
  viscosity: 16 ± 0.7 mPa·s
389.32 K, Cone and plate viscometry
  viscosity: 16.2 ± 0.7 mPa·s
390.04 K, Cone and plate viscometry
  viscosity: 15.8 ± 0.7 mPa·s
390.05 K, Cone and plate viscometry
  viscosity: 15.6 ± 0.6 mPa·s
390.79 K, Cone and plate viscometry
  viscosity: 15.3 ± 0.6 mPa·s and 15.5 ± 0.6 mPa·s
391.53 K, Cone and plate viscometry
  viscosity: 15.4 ± 0.6 mPa·s
391.54 K, Cone and plate viscometry
  viscosity: 15.1 ± 0.6 mPa·s
392.26 K, Cone and plate viscometry
  viscosity: 14.7 ± 0.6 mPa·s
392.28 K, Cone and plate viscometry
  viscosity: 15.2 ± 0.6 mPa·s
393.01 K, Cone and plate viscometry
  viscosity: 14.6 ± 0.6 mPa·s
393.02 K, Cone and plate viscometry
  viscosity: 14.8 ± 0.6 mPa·s
393.75 K, Cone and plate viscometry
  viscosity: 14.5 ± 0.6 mPa·s
393.76 K, Cone and plate viscometry
  viscosity: 14.3 ± 0.6 mPa·s
394.5 K, Cone and plate viscometry
  viscosity: 14.3 ± 0.6 mPa·s
394.51 K, Cone and plate viscometry
  viscosity: 14.2 ± 0.6 mPa·s
395.25 K, Cone and plate viscometry
  viscosity: 14.1 ± 0.6 mPa·s
395.26 K, Cone and plate viscometry
  viscosity: 14 ± 0.6 mPa·s
395.99 K, Cone and plate viscometry
  viscosity: 13.9 ± 0.6 mPa·s and 14 ± 0.6 mPa·s
396.73 K, Cone and plate viscometry
  viscosity: 13.7 ± 0.6 mPa·s and 13.9 ± 0.6 mPa·s
397.47 K, Cone and plate viscometry
  viscosity: 13.5 ± 0.6 mPa·s
397.48 K, Cone and plate viscometry
  viscosity: 13.5 ± 0.6 mPa·s
398.22 K, Cone and plate viscometry
  viscosity: 13.2 ± 0.5 mPa·s and 13.4 ± 0.6 mPa·s
398.96 K, Cone and plate viscometry
  viscosity: 13 ± 0.5 mPa·s
398.97 K, Cone and plate viscometry
  viscosity: 13.1 ± 0.5 mPa·s
399.7 K, Cone and plate viscometry
  viscosity: 12.9 ± 0.5 mPa·s and 13 ± 0.5 mPa·s
400.44 K, Cone and plate viscometry
  viscosity: 12.9 ± 0.5 mPa·s
400.45 K, Cone and plate viscometry
  viscosity: 12.7 ± 0.5 mPa·s
401.19 K, Cone and plate viscometry
  viscosity: 12.6 ± 0.5 mPa·s and 12.8 ± 0.5 mPa·s
401.93 K, Cone and plate viscometry
  viscosity: 12.3 ± 0.5 mPa·s
401.94 K, Cone and plate viscometry
  viscosity: 12.6 ± 0.5 mPa·s
402.67 K, Cone and plate viscometry
  viscosity: 12.2 ± 0.5 mPa·s and 12.4 ± 0.5 mPa·s
403.42 K, Cone and plate viscometry
  viscosity: 12.1 ± 0.5 mPa·s and 12.3 ± 0.5 mPa·s
404.16 K, Cone and plate viscometry
  viscosity: 12 ± 0.5 mPa·s and 12.1 ± 0.5 mPa·s
404.9 K, Cone and plate viscometry
  viscosity: 11.7 ± 0.5 mPa·s
404.91 K, Cone and plate viscometry
  viscosity: 12 ± 0.5 mPa·s
405.64 K, Cone and plate viscometry
  viscosity: 11.5 ± 0.5 mPa·s and 11.6 ± 0.5 mPa·s
406.39 K, Cone and plate viscometry
  viscosity: 11.3 ± 0.5 mPa·s and 11.5 ± 0.5 mPa·s
407.13 K, Cone and plate viscometry
  viscosity: 11.2 ± 0.5 mPa·s and 11.4 ± 0.5 mPa·s
407.87 K, Cone and plate viscometry
  viscosity: 11.3 ± 0.5 mPa·s
407.88 K, Cone and plate viscometry
  viscosity: 11.1 ± 0.5 mPa·s
408.62 K, Cone and plate viscometry
  viscosity: 10.6 ± 0.4 mPa·s and 10.7 ± 0.4 mPa·s
409.35 K, Cone and plate viscometry
  viscosity: 10.4 ± 0.4 mPa·s and 10.5 ± 0.4 mPa·s
410.1 K, Cone and plate viscometry
  viscosity: 10.3 ± 0.4 mPa·s and 10.4 ± 0.4 mPa·s
410.84 K, Cone and plate viscometry
  viscosity: 10.3 ± 0.4 mPa·s
410.85 K, Cone and plate viscometry
  viscosity: 10.2 ± 0.4 mPa·s
411.58 K, Cone and plate viscometry
  viscosity: 10.1 ± 0.4 mPa·s
411.59 K, Cone and plate viscometry
  viscosity: 10.2 ± 0.4 mPa·s
412.33 K, Cone and plate viscometry
  viscosity: 10 ± 0.4 mPa·s and 10.1 ± 0.4 mPa·s
413.07 K, Cone and plate viscometry
  viscosity: 9.6 ± 0.4 mPa·s and 9.9 ± 0.4 mPa·s
413.82 K, Cone and plate viscometry
  viscosity: 9.6 ± 0.4 mPa·s and 9.7 ± 0.4 mPa·s
